From patent publication US12694522B2, “Systems and methods of correcting batch effect in biological images” (The University of Hong Kong, priority 2022, dated 2026)

system: H2170 cells; test: Drug treatment response of lung cancer cell line H2170 (IC50 concentration level of Table 1); format: cell-based; conditions: Homo sapiens, NCI-H2170; LUSC cell line H2170; concentration level annotated IC50* in Table 1; 24 hours treatment; read-out: IC50 (half-maximal inhibitory concentration of drug)
Procedure: Morphological profiling is emerging as a promising technique in drug screening; however, the presence of batch effects poses a significant challenge. In this context, the efficacy of the CytoMAD approach is evaluated using label-free drug response assays conducted on LUSC (H2170) cells treated with docetaxel, afatinib, and gemcitabine at various concentrations across two distinct batches. This comprises 18 distinct drug treatment conditions, encompassing five concentration levels and one negative control. During the CytoMAD training process, only batch information and drug types are provided, withholding specific drug concentration data. This allows for the evaluation of the model's self-supervised capability to capture morphological changes across concentrations.
Comparative analysis of phenotypic distributions across different drug treatments (representing different colored violins) showcases preserved patterns before and after the implementation of CytoMAD, confirming its capacity to retain cellular information. To further verify the cellular phenotypic preservation capacity of CytoMAD model, treatment response experiment is conducted with lung cancer cell line H2170. In this experiment, H2170 are treated with drugs of different mechanism of action (MoA) (i.e. Docetaxel as microtubule stabilizing agent, Afatinib as tyrosine kinase inhibitor in targeted therapy and Gemcitabine as antimetabolite), each with 5 concentration levels and a negative control with dimethyl sulfoxide (DMSO) for 24 hours as listed in Table 1. They are imaged using multi-ATOM for single-cell BF and QPI images on 6 days, forming 2 batches with ~100,000 cells per drug. Basically, this dataset consists of 2 batches of data, with each batch containing 3 different drug treatments and each treatment comprising 6 different concentration conditions.

SMILES | IC50 [nM]
CC(=O)O[C@@]12CO[C@@H]1C[C@H](O)[C@@]1(C)C(=O)[C@H](O)C3=C(C)[C@@H](OC(=O)[C@H](O)[C@@H](NC(=O)OC(C)(C)C)c4ccccc4)C[C@@](O)([C@@H](OC(=O)c4ccccc4)[C@H]21)C3(C)C [Docetaxel] | 3.76
CN(C)C/C=C/C(=O)Nc1cc2c(Nc3ccc(F)c(Cl)c3)ncnc2cc1O[C@H]1CCOC1 [Afatinib] | 19
Nc1ccn([C@@H]2O[C@H](CO)[C@@H](O)C2(F)F)c(=O)n1 [Gemcitabine] | 7.51
